Reference: the NIST ThermoML archive (doi:10.1016/j.fluid.2009.09.019)
± gives the expanded uncertainty stated by the source.

What was measured:
[1] = 293.2 K; 101.33 kPa; Liquid; Vibrating tube method
[2] = refractive index (Na D-line) (dimensionless); settings: 293.2 K; 101.33 kPa; Liquid; Standard Abbe refractometry

Row | Compound | mass density [1] | refractive index [2]
1 | Cc1ccccc1 [toluene] | – | 1.4967 ± 0.0004
2 | O=C1CCCO1 [γ-butyrolactone] | 1128.7 ± 1.1 kg/m3 | 1.4344 ± 0.0005

Second part, the compound after the results:

Row | mass density [1] | refractive index [2] | Compound
3 | 684.1 ± 0.25 kg/m3 | 1.3873 ± 0.0004 | CCCCCCC [heptane]
4 | 778.12 ± 0.61 kg/m3 | 1.4263 ± 0.0005 | C1CCCCC1 [cyclohexane]
5 | 660.1 ± 0.25 kg/m3 | 1.375 ± 0.0004 | CCCCCC [hexane]
